Data on four compounds can be found in publication PMC3314937, “Identifying improved TSPO PET imaging probes through biomathematics: The impact of multiple TSPO binding sites in vivo” (Neuroimage, 2012).

Structures are written as SMILES. Like-named read-outs stand apart in the source and are kept apart here. Marks after values point to notes of the source that are not given here.

Data set [1] relates to TSPO. The data set can be described thus: competition assays with ^3H-PK11195 for each binding class. Details: species or system human.
The subject of data set [2] is TSPO. On the set-up: method as in Owen et al. (2010, 2011). The following applies: 37 °C, ref Owen et al. (2010, 2011), cited from earlier work; for Bmax-H: HABs, ^3H-PBR28 values also used for PBR111 and DPA713, ^3H-PK11195 for PK11195; for Bmax-L: LABs; for Bmax-M: MABs, both high and low affinity sites, Bmax_H used for PK11195.
Data set [3] in a line: equilibrium dialysis, free fractions in plasma and brain tissue. The following applies: 1 μg/g, dialysis against PBS pH 7.4, 5 h, 37 °C.
Experimental: (§1) The fP and fND were measured from Landrace pig tissue (blood and brain — obtained from Charles River Laboratories, Tranent, Scotland) using equilibrium dialysis ([Summerfield et al., 2006]). In brief, the cold test compounds were spiked into plasma or brain homogenate at a concentration of 1 μg/g and dialysed against phosphate buffered saline (PBS, pH 7.4) for 5 h at 37 °C. Aliquots (20–50 μL) of plasma, brain and dialysate were taken and extracted using acetonitrile containing internal standard, followed by LC–MS/MS analysis. The free fractions were determined as the concentration ratio of analyte in dialysate to that in plasma or brain.
Data set [4] is described as follows: in vitro. The following applies: Landrace, pig, pH 7.4.
Experimental: as §1
Data set [5] has as its target TSPO. The following applies: ^3H-PK11195, 37 °C, ref Owen et al. (2010, 2011), cited from earlier work.

Consider `CCN(CC)C(=O)Cc1c(-c2ccc(OCCC[18F])cc2)nc2ccc(Cl)cn12` [^18F-PBR111], for which the “affinity ratio (high:low binding site)” value in data set [1] is listed as ~ 4. Also, in data set [2], the Bmax-H was 193 ± 66 (n = 6) nM, the Bmax-L was 99.4 ± 35 (n = 5) nM and the Bmax-M is 186 ± 37 (n = 4) nM. The “fND (free fraction in tissue)” value in data set [3] (pig brain homogenate) was 0.06 ± 0.005 (n = 6). Further, the “fp (free fraction in plasma)” value in data set [3] (pig plasma) is listed as 0.19 ± 0.018 (n = 6).
Take `CC[C@@H](C)N(C)C(=O)c1cc2ccccc2c(-c2ccccc2Cl)n1` [^11C-(R)-PK11195]: in data set [2], the Bmax-H is listed as 433 ± 154 (n = 9) nM, the Bmax-L is given as 506 ± 131 (n = 5) nM and the Bmax-M is on record as 433 ± 154 ^b (n = 9) nM. Further, the fraction unbound at 5 h, 1 μg/g in data set [4] (brain homogenate) was determined as 0.01 ± 0.002. Further, in data set [4] (plasma), the free fraction (fraction unbound) at 5 h, 1 μg/g amounted to 0.14 ± 0.039.
Regarding `CCN(CC)C(=O)Cc1c(-c2ccc(O[11CH3])cc2)nn2c(C)cc(C)nc12` [^11C-DPA713], in data set [2], the Bmax-H is given as 193 ± 66 (n = 6) nM, the Bmax-L is 99.4 ± 35 (n = 5) nM and the Bmax-M is reported as 186 ± 37 (n = 4) nM.
As to `CCN(CC)C(=O)Cc1c(-c2ccc(OCCCF)cc2)nc2ccc(Cl)cn12` [^18F-PBR111], the Ki in data set [5] (high affinity site (HABs), read-out: Ki-H) was 15.6 ± 3.7 nM; in data set [5] (low affinity site (LABs), read-out: Ki-L) it was 61.8 ± 10.7 nM.
